Source: patent US20130059783A1, “COMPOSITIONS AND METHODS FOR EXPANDING BFU-E CELLS” (priority 2010, published 2013)

Tested on: mRNA expression in BFU-E cells
Test: mRNA-Seq of BFU-E cells cultured 4 hours with or without Dex (Table S3)
Type: cell-based, mouse
Conditions: for Expression level log2((100 nM DEX)* (0 nM DEX)) / Expression of mRNA in BFU-E after 4 h 100 nM DEX (RPKM) / Expression change log2 ((100 nM DEX)/(0 nM DEX)) / Expression change log2 ((100 nM DEX)/(0 nM DEX))2: BFU-E, 4 h; for Expression change log2 ((100 nM DEX)/(0 nM DEX)): 100 nM vs 0 nM DEX
Description: FIGS. 2A-2B. The effect of glucocorticoids on miRNA and mRNA expression in BFU-E cells determined by next generation sequencing. […] Both mRNAs and miRNAs were subjected to Illumina deep sequencing. […] (B) A plot similar to that in A for expression of individual mRNAs. mRNA expression was normalized using the RPKM method, which determines the relative expression of each gene to all expressed genes by giving each gene an RPKM count (number of uniquely aligning reads per kb exon per million total reads). […]
To minimize the risk of false positive GC target genes we chose to compare only highly expressed genes (≈10,000 genes with a multiplied RPKM count >4) (Mortazavi et al., 2008).
Samples for Paired-End mRNA-Seq were prepared using the Solexa kit according to the manufacturer's instructions with the exception that we extracted 300 bp bands, before and after the PCR step (Illumina). Images acquired from the Solexa sequencer were processed through the bundled Solexa image extraction pipeline version 1.4. mRNA-Seq reads were aligned to mouse NCBI build 37 (mm9) using ELAND, Briefly, the first 32 bases of a read were used as a seed. Each matched seed was then extended up to 36 bases and scored to break any ties between multi-matches. For mRNA expression counts, unique reads in the genome that landed within any exons of NCBI gene models (v37.1) were counted. The counts were normalized by the mRNA length to get the final RPKM values (i.e. reads per KB per million reads).

[1] = BFU-E cells, 4 hours, 100 nM Dex
[2] = gene 38413 (membrane-associated ring finger (C3HC4) 3)

C[C@@H]1C[C@H]2[C@@H]3CCC4=CC(=O)C=C[C@]4(C)[C@@]3(F)[C@@H](O)C[C@]2(C)[C@@]1(O)C(=O)CO [Dex, dexamethasone]
Upregulation of Ddit4 (BFU-E cells, 4 hours): > 8 fold
Genes differentially expressed (more than a factor of 2) [1]: 195 genes
Genes down regulated (more than a factor of 2) [1]: 112 genes
Genes up regulated (more than a factor of 2) [1]: 83 genes
Expression level log2((100 nM DEX)* (0 nM DEX)) [2]: 4.94
Expression of mRNA in BFU-E after 4 h 100 nM DEX (RPKM) [2]: 8.25 RPKM
Expression of mRNA in BFU-E after 4 h 100 nM DEX (RPKM) (gene 0610040J01Rik): 14.77 RPKM
Expression change log2 ((100 nM DEX)/(0 nM DEX)) (gene 0610040J01Rik): 2.84
Expression of mRNA in BFU-E after 4 h 100 nM DEX (RPKM) (gene Acp5): 20.40 RPKM
Expression change log2 ((100 nM DEX)/(0 nM DEX)) (gene Acp5): 2.70
Expression of mRNA in BFU-E after 4 h 100 nM DEX (RPKM) (gene Ampd3): 15.71 RPKM
Expression of mRNA in BFU-E after 4 h 100 nM DEX (RPKM) (gene Ank): 48.60 RPKM
Expression change log2 ((100 nM DEX)/(0 nM DEX)) (gene Ank): 2.06
Expression change log2 ((100 nM DEX)/(0 nM DEX))2 (gene Aqp3): 1.34
Expression of mRNA in BFU-E after 4 h 100 nM DEX (RPKM) (gene Aqp3): 6.98 RPKM
Expression of mRNA in BFU-E after 4 h 100 nM DEX (RPKM) (gene Arhgef3): 16.21 RPKM
Expression change log2 ((100 nM DEX)/(0 nM DEX)) (gene Arhgef3): 2.88
Expression level log2((100 nM DEX)* (0 nM DEX)) (gene Atp2b4): 9.79
Expression of mRNA in BFU-E after 4 h 100 nM DEX (RPKM) (gene Atp2b4): 43.89 RPKM
Expression of mRNA in BFU-E after 4 h 100 nM DEX (RPKM) (gene Bcl2): 6.45 RPKM
Expression change log2 ((100 nM DEX)/(0 nM DEX)) (gene Bcl2): 1.69
Expression of mRNA in BFU-E after 4 h 100 nM DEX (RPKM) (gene Cables1): 4.90 RPKM
Expression change log2 ((100 nM DEX)/(0 nM DEX))2 (gene Ccnd1): 1.34
Expression level log2((100 nM DEX)* (0 nM DEX)) (gene Ccnd1): 3.76
Expression of mRNA in BFU-E after 4 h 100 nM DEX (RPKM) (gene Ccnd1): 5.86 RPKM
Expression level log2((100 nM DEX)* (0 nM DEX)) (gene Cd59a): 2.18
Expression of mRNA in BFU-E after 4 h 100 nM DEX (RPKM) (gene Cd59a): 3.15 RPKM
Expression of mRNA in BFU-E after 4 h 100 nM DEX (RPKM) (gene Clca1): 7.54 RPKM
Expression change log2 ((100 nM DEX)/(0 nM DEX)) (gene Clca1): 2.07
Expression level log2((100 nM DEX)* (0 nM DEX)) (gene Clcn2): 5.04
Expression of mRNA in BFU-E after 4 h 100 nM DEX (RPKM) (gene Clcn2): 8.78 RPKM
Expression level log2((100 nM DEX)* (0 nM DEX)) (gene Clint1): 15.15
Expression of mRNA in BFU-E after 4 h 100 nM DEX (RPKM) (gene Clint1): 285.78 RPKM
Expression of mRNA in BFU-E after 4 h 100 nM DEX (RPKM) (gene Clstn1): 70.51 RPKM
Expression change log2 ((100 nM DEX)/(0 nM DEX)) (gene Clstn1): 1.72
Expression level log2((100 nM DEX)* (0 nM DEX)) (gene Cyth3): 11.35
Expression of mRNA in BFU-E after 4 h 100 nM DEX (RPKM) (gene Cyth3): 75.31 RPKM
Expression of mRNA in BFU-E after 4 h 100 nM DEX (RPKM) (gene Ddit4): 20.23 RPKM
Expression change log2 ((100 nM DEX)/(0 nM DEX)) (gene Ddit4): 3.08
Expression level log2((100 nM DEX)* (0 nM DEX)) (gene E430018J23Rik): 2.10
Expression of mRNA in BFU-E after 4 h 100 nM DEX (RPKM) (gene E430018J23Rik): 3.02 RPKM
Expression of mRNA in BFU-E after 4 h 100 nM DEX (RPKM) (gene Egln3): 16.47 RPKM
Expression change log2 ((100 nM DEX)/(0 nM DEX)) (gene Egln3): 3.00
Expression of mRNA in BFU-E after 4 h 100 nM DEX (RPKM) (gene Egr1): 18.06 RPKM
Expression of mRNA in BFU-E after 4 h 100 nM DEX (RPKM) (gene Fam46a): 6.44 RPKM
Expression change log2 ((100 nM DEX)/(0 nM DEX)) (gene Fam46a): 1.68
Expression of mRNA in BFU-E after 4 h 100 nM DEX (RPKM) (gene Fam46c): 13.90 RPKM
Expression level log2((100 nM DEX)* (0 nM DEX)) (gene Fam55c): 5.91
Expression of mRNA in BFU-E after 4 h 100 nM DEX (RPKM) (gene Fam55c): 11.20 RPKM
Expression of mRNA in BFU-E after 4 h 100 nM DEX (RPKM) (gene Fam83g): 8.67 RPKM
Expression level log2((100 nM DEX)* (0 nM DEX)) (gene Fes): 2.34
Expression of mRNA in BFU-E after 4 h 100 nM DEX (RPKM) (gene Fes): 3.48 RPKM
Expression of mRNA in BFU-E after 4 h 100 nM DEX (RPKM) (gene Fkbp5): 74.76 RPKM
Expression change log2 ((100 nM DEX)/(0 nM DEX)) (gene Fkbp5): 1.71
Expression level log2((100 nM DEX)* (0 nM DEX)) (gene Fkbp11): 9.88
Expression of mRNA in BFU-E after 4 h 100 nM DEX (RPKM) (gene Fkbp11): 44.44 RPKM
Expression of mRNA in BFU-E after 4 h 100 nM DEX (RPKM) (gene Frmd4a): 28.77 RPKM
Expression change log2 ((100 nM DEX)/(0 nM DEX)) (gene Frmd4a): 2.03
Expression level log2((100 nM DEX)* (0 nM DEX)) (gene Glul): 12.54
Expression of mRNA in BFU-E after 4 h 100 nM DEX (RPKM) (gene Glul): 110.54 RPKM
Expression change log2 ((100 nM DEX)/(0 nM DEX))2 (gene Gm129): 1.01
Expression level log2((100 nM DEX)* (0 nM DEX)) (gene Gm129): 2.29
Expression of mRNA in BFU-E after 4 h 100 nM DEX (RPKM) (gene Gm129): 3.14 RPKM
Expression of mRNA in BFU-E after 4 h 100 nM DEX (RPKM) (gene Gna14): 3.37 RPKM
Expression level log2((100 nM DEX)* (0 nM DEX)) (gene Gng13): 3.81
Expression of mRNA in BFU-E after 4 h 100 nM DEX (RPKM) (gene Gng13): 5.76 RPKM
Expression of mRNA in BFU-E after 4 h 100 nM DEX (RPKM) (gene Gsta4): 9.00 RPKM
Expression change log2 ((100 nM DEX)/(0 nM DEX)) (gene Gsta4): 2.60
Expression of mRNA in BFU-E after 4 h 100 nM DEX (RPKM) (gene Hif3a): 101.46 RPKM
Expression change log2 ((100 nM DEX)/(0 nM DEX)) (gene Hif3a): 1.38
Expression of mRNA in BFU-E after 4 h 100 nM DEX (RPKM) (gene Hopx): 13.32 RPKM
Expression change log2 ((100 nM DEX)/(0 nM DEX)) (gene Hopx): 1.82
Expression of mRNA in BFU-E after 4 h 100 nM DEX (RPKM) (gene Hp): 4.41 RPKM
Expression change log2 ((100 nM DEX)/(0 nM DEX))2 (gene Ier2): 1.05
Expression level log2((100 nM DEX)* (0 nM DEX)) (gene Ier2): 10.07
Expression of mRNA in BFU-E after 4 h 100 nM DEX (RPKM) (gene Ier2): 47.27 RPKM
Expression level log2((100 nM DEX)* (0 nM DEX)) (gene Ier3): 3.80
Expression of mRNA in BFU-E after 4 h 100 nM DEX (RPKM) (gene Itgb3): 7.39 RPKM
Expression change log2 ((100 nM DEX)/(0 nM DEX)) (gene Itgb3): 2.37
